Earlier results in patent publication US6979468B1, “Oral composition and method for the treatment of inflammatory cutaneous disorders” (Sirius Laboratories, priority 2002, dated 2005).

Tested on: acne vulgaris
Conditions: administered orally, 100–600 milligrams per day in divided doses taken 2 to 4 times per day

NC(=O)c1cccnc1 [nicotinamide]
effect on acne lesions: decrease inflammatory lesions such as papules, pustules, and cysts, but not comedones
